Assay results: patent US5902822A, “7-methylthiooxomethyl and 7-methylthiodioxomethyl paclitaxels” (Bristol-Myers Squibb Company, priority 1998, dated 1999)
pIC50: −log10 of the molar value. Like-named read-outs stand apart in the source and are kept apart here.

Tests used:
[1] = test system: M109 lung carcinoma; test: Mice M109 model, advanced distal site antitumor IV testing; type: in vivo, Balb/c×DBA 2 F1 (CDF1) hybrid mice; settings: for Maximum Effect T-C days (delay of median time to grow tumor to 1 gm): intravenous, once daily on days 4-8 post-tumor implant, sc tumor
Description: Mice M109 Model (In-Vivo Activity)
Balb/c×DBA 2 F1 (CDF1) hybrid mice were implanted subcutaneously (sc) with 0.1 mL of a 2% (w/v) brei of M109 lung carcinoma (as described by William Rose in Evaluation of Madison 109 Lung Carcinoma as a Model for Screening Antitumor Drugs, Cancer Treatment Reports, 65, No. 3-4 (1981)).
The test compounds and reference drug, paclitaxel, were administered intravenously to groups of mice; each group received a compound at a different dose level, and three or four different dose levels were evaluated per compound. Mice were treated with compounds intravenously, once daily, on days 4, 5, 6, 7, and 8 post-tumor implant. Mice were followed daily for survival until their death or approximately 60-90 days post-tumor implant whichever occurred first. One group of mice per experiment remained untreated and served as the primary control group; a secondary control group was typically included and received 1/10th the tumor inocula of all the other groups of mice (i.e., 0.1 ml of a 0.2% (w/v) brei of M109 lung carcinoma). Tumors were also measured once or, more often, twice weekly to estimate the tumor weight according to the published procedure (ibid).
Median survival times of compound-treated (T) mice were compared to the median survival time of the control (C) mice. The ratio of the two values for each compound-treated group of mice was multiplied by 100 and expressed as a percentage (i.e. % T/C) in the following Table II for representative compounds. Additionally, the difference between the median time for treated groups and that for the control group to grow tumor to 1 gm, expressed as T-C values in days, is also shown in the following table. The greater the T-C value, the greater the delay in primary tumor growth. […] When the difference in the time to grow 1 gm tumors in both primary and secondary control groups is greater than 4 days, that difference becomes the criterion for activity.
Advanced Distal Site Antitumor IV Testing of Paclitaxel Derivatives

[2] = cited from earlier work
[3] = test system: HCT116 human colon carcinoma cells; test: XTT cytotoxicity assay in HCT116 human colon carcinoma cells; type: cell-based; settings: read-out: Cytotoxicity Assay IC50 against HCT 116 Human colon tumor cell line
Description: Cytotoxicity was assessed in HCT116 human colon carcinoma cells by XTT (2,3-bis(2-methoxy-4-nitro-5-sulfophenyl)-5-[(phenylamino)carbonyl]-2H-tetrazolium hydroxide assay (1). Cells were plated at 4000 cells/well in 96 well microtiter plates and 24 hrs later drugs were added and serial diluted. The cells were incubated at 37° C. for 72 hrs at which time the tetrazolium dye, XTT, containing phenazine methosulfate was added. A dehydrogenase enzyme in live cells reduces the XTT to a form that absorbs light at 450 nm which can be quantitated spectrophotometrically. The greater the absorbance the greater the number of live cells. The results are expressed as an IC50 which is the drug concentration required to inhibit cell proliferation (i.e. absorbance at 450 nm) to 50% of that of untreated control cells.
The IC50 values for compounds evaluated in this assay are contained in Table I.

[4] = HCT-116, XTT, 72 hrs incubation at 37° C.

CC(=O)O[C@H]1C(=O)[C@]2(C)[C@@H](OC[S+](C)[O-])C[C@H]3OC[C@@]3(OC(C)=O)[C@H]2[C@H](OC(=O)c2ccccc2)[C@]2(O)C[C@H](OC(=O)[C@H](O)[C@@H](NC(=O)c3ccccc3)c3ccccc3)C(C)=C1C2(C)C (some centres unmarked)
Maximum Effect % T/C (median survival time, treated vs control) ([1]; 15 mg/kg): 141%
Maximum Effect % T/C (median survival time, treated vs control) ([1]; 25 mg/kg): 129%
Maximum Effect T-C days (delay of median time to grow tumor to 1 gm) ([1]; Opt. dose 15 mg/kg/inj): 9.0 days
Maximum Effect T-C days (delay of median time to grow tumor to 1 gm) ([1]; Opt. dose 25 mg/kg/inj): 10.0 days

CC(=O)O[C@H]1C(=O)[C@@]2(C)[C@H]([C@H](OC(=O)c3ccccc3)[C@]3(O)C[C@H](OC(=O)[C@H](O)[C@@H](NC(=O)c4ccccc4)c4ccccc4)C(C)=C1C3(C)C)[C@]1(OC(C)=O)CO[C@@H]1C[C@@H]2O [paclitaxel]
antitumor activity in in vivo animal models, in words [2]: excellent antitumor activity
pIC50 [3, 4]: 8.23 to 8.31

CC(=O)O[C@H]1C(=O)[C@]2(C)[C@@H](OC[S+](C)[O-])C[C@H]3OC[C@@]3(OC(C)=O)[C@H]2[C@H](OC(=O)c2ccccc2)[C@]2(O)C[C@H](OC(=O)[C@H](O)[C@@H](NC(=O)c3ccccc3)c3ccccc3)C(C)=C1C2(C)C (some centres unmarked) [2 & 3 (Example 1)]
pIC50 ([3]; HCT-116, 72 h): 7.89

CC(=O)O[C@H]1C(=O)[C@]2(C)[C@@H](OCS(C)(=O)=O)C[C@H]3OC[C@@]3(OC(C)=O)[C@H]2[C@H](OC(=O)c2ccccc2)[C@]2(O)C[C@H](OC(=O)[C@H](O)[C@@H](NC(=O)c3ccccc3)c3ccccc3)C(C)=C1C2(C)C [4 (Example 2)]
pIC50 [3, 4]: 8.55
